Measurements published in paper PMC6010047, “Design, synthesis and biological evaluation of novel hydroxy-phenyl-1H-benzimidazoles as radical scavengers and UV-protective agents” (Journal of Enzyme Inhibition and Medicinal Chemistry, 2017).
Read-outs that look alike come from different tables or passages of the source.

How the values were obtained:
[1] = Ferric reducing antioxidant of potency (FRAP) assay; format: biochemical; settings: Trolox equivalents; mean ± SE of three experiments
Description: The ferric reducing ability of each standard solution was measured according to a modified protocol described by Guihua et al.[26]. The reagent for analysis was freshly prepared by mixing the following solutions in the reported ratio 10/1/1 (v:v:v) (i) 0.1 M acetate buffer pH 3.6, (ii) TPTZ (2,4,6-Tri(2-pyridyl)-s-triazine) 10 mmol/L in 40 mmol/HCl, (iii) ferric chloride 20 mmol/L. To a 1.9 mL of reagent were added 0.1 mL of sample proper diluted or solvent when blank was performed. Readings at fixed wavelength of the absorption maximum (593 nm) were done after 30 min, using a UV-VIS spectrophotometer; it was evaluated the absorbance increase of sample solution against the absorbance of blank reaction as parameter to calculate the antioxidant activity. The antioxidant activity is given as Trolox activity since this standard was used to perform the calibration curves.

[2] = test system: NCTC-2544 cells; experiment: Phototoxicity / cellular photoprotection, UVA or UVB irradiation, MTT test; settings: for % Cell survival UVA 20 J/cm^2 / % Cell survival UVB 0.5 J/cm^2 / % Cell survival UVB 1 J/cm^2: 50 μM, vs nonirradiated cells (100%), 48 h after irradiation; for phototoxic effect (cell survival vs irradiated control): NCTC-2544, UVA/UVB irradiation; for viability at 20 µM / viability at 50 µM: Homo sapiens, NCTC-2544, light or radiation study, 48 h; for cell survival in relation to the irradiated control: after UVB irradiation 1 J/cm^2
Description: (§1) An immortalized, nontumorigenic cell line of human keratinocytes (NCTC-2544) was grown in a DMEM medium (Sigma-Aldrich Milan, Italy), supplemented with 115 units/mL of penicillin G, 115 μg/mL streptomycin, and 10% fetal calf serum (Invitrogen, Milan, Italy). Individual wells of a 96-well tissue culture microtiter plates (Falcon, Becton–Dickinson) were inoculated with 100 μL of complete medium containing 5 × 10^3 NCTC-2544. The plates were incubated at 37 °C in a humidified (5% CO2) incubator for 18 h prior to the experiments.
Two HPW 125 Philips lamps, mainly emitting at 365 nm, were used for UVA irradiation experiments. The spectral irradiance of the source was 4.0 mWcm^−^2 as measured at the sample level by a Cole-Parmer Instrument Company radiometer (Niles, IL) equipped with a 365-CX sensor. One or two PL-S 9 W/12 Philips lamps (280–370 nm; peak at 315 nm) were used for UVB irradiation experiments. To restrict the incident radiation to the range 305–370 nm, a glass filter (Schott SWG-305) was used. Total energy was detected by the same equipped with a sensor (model CX-312).
After medium removal, 100 μL of the drug solution, dissolved in DMSO and diluted with Hank’s Balanced Salt Solution (HBSS pH =7.2), was added to each well, incubated at 37 °C for 30 min, and then irradiated (20 J/cm^2 for UVA and 0.5 and 1 J/cm^2 for UVB). After irradiation, the solution was replaced with the medium and the plates were further incubated for 48 h. Cell viability was assayed by the MTT [(3–(4,5-dimethylthiazol-2-yl)-2,5 diphenyl tetrazolium bromide)] test as previously described by Mosmann[27].
Molecules were verified for their photocytotoxicity in the same cell line; the cells were treated with 50 μM solutions of compound and after 30 min were irradiated with 20 J/cm^2 UVA or with UVB at two energy amounts: 0.5 J/cm^2 and 1 J/cm^2 UVB. […] After irradiation, the solution was replaced with growth medium and the cells were further incubated for 48 h, and then, cell viability was assessed by MTT assay. […] The phototoxicity of tested molecules was compared with the ratio of cell survival of irradiated keratinocytes without substance (IC = irradiated control).

[3] = PCL antioxidant activity of finished formulations; format: biochemical; settings: 3% (w/w) compound in O/W formulation
Description: PCL assay, based on the methodology of Popov and Lewin[23], was used to measure the antioxidant activity of synthesized compounds with a Photochem® apparatus (Analytik Jena, Leipzig, Germany) against superoxide anion radicals generated from luminol, a photosensitizer, when exposed to UV light (Double Bore® phosphor lamp, output 351 nm, 3 mWatt/cm^2). The antioxidant activity was measured using ACL (Antioxidant Capacity of Liposoluble substance) kit provided by the manufacturer designed to measure the antioxidant activity of lipophilic compounds[24]. […] The areas under the curves were calculated using the PCLsoft control and analysis software. […] This inhibition was used as a parameter for quantification and related to the decrease in the integral of PCL intensities caused by varying concentrations of Trolox. The observed inhibition of the signal was plotted against the concentration of Trolox added to the assay medium. The concentration of the added tested compounds was such that the generated luminescence during the 180-s sampling interval fell within the limits of the standard curve. The antioxidant assay was carried out in triplicate for each sample, and 20 μL of the diluted compound in HPLC-grade methanol (ACL) was sufficient to correspond to the standard curve.
It was decided to use a standard formulation oil in water (O/W).
In particular, molecules with phenolic hydroxyl in the ortho position on the phenyl ring (4, 5, 9, 10 and 13) had better and higher UVA/UVB ratio and critical wavelength, although they have the SPF value less than lead compound. Formulation containing products 2 and 14, which have a phenolic hydroxyl at the para position on the phenyl ring, have shown good values in terms of SPF, greater UVA protection factor, critical wavelength and also higher UVA/UVB ratio than PBSA, but yet lower than the molecules containing hydroxyl on the phenyl ring in ortho. […] Compound 8 has lower SPF than 3, but higher than PBSA; in comparison with 3, molecules 8 and 12 presented higher UVA/UVB ratio and critical wavelength. Regarding compounds with three hydroxyls on phenyl ring, they have good UVA filtering parameters, their critical wavelengths are the highest and SPF is higher than PBSA for molecule 6, while SPF of 15 is slightly lower and decreases further in molecule 11. Thus, it can be observed that parameters are mainly influenced by the number and position of the hydroxyl groups on the phenyl ring rather than the substituent in the 5-position of benzimidazole. Concomitantly, all formulations were analyzed to assess whether the antioxidant power was maintained. […] In Table 4, the antioxidant activity, measured by PCL method, of finished formulations is reported; as it can be seen results were in agreement with that obtained testing the pure compounds. […] Formulations containing compounds 3, 8 and 12 presented highest antioxidant capabilities; these are followed, but with important decrease in antioxidant capacity, by formulations with compounds 6, […] and 15 that have three hydroxyl moieties on phenyl ring.

[4] = UV spectra: λmax and molar extinction coefficient; format: physicochemical; settings: for λ max: aqueous solution at pH 7; for ɛ (molar extinction coefficient): aqueous solution at pH 7, at λ max, linear regression Lambert–Beer
Description: Sun protection factor (SPF) is related to the UV absorption of the substances, so before including the molecules in cosmetic formulations we evaluated the wavelength of maximum absorption (λmax) and the molar extinction coefficient (ɛ) of each molecule in aqueous solution at pH 7. The UV spectra were recorded between 270 and 420 nm (20 nm higher and lower then UVA and UVB range) to verify the spectrum profile of the molecules within UVA and UVB region. UV spectrum of PBSA is an UVB filter and presents a λmax of 302 nm; after this peak, the absorbance fades going to higher wavelength until almost zero around 325 nm, and then, it provides no absorption in the UVA region. Molecules spectra overlapped for category according to the substituent in position 5 of the benzimidazole ring are shown in Figures 1, 2 and 3; PBSA spectrum is presented in all figures for comparison.
From the spectra appears that the lambda maxima (Table 2) of the new molecules shifted toward higher wavelength and in general the range of absorption curve was wider than PBSA. Within a group of molecules, the batochromic shift was more marked for the molecules that have a hydroxyl moiety in position 2 of the phenyl ring (4, 5, 6, 9, 10, 11, 13 and […]); the effect of ortho substituted is known to produce this shift toward higher wavelength. Increasing the number of auxochrome groups on phenyl ring an increment in the absorption range occurred, compounds with three hydroxyl on the phenyl ring (6, 11, 15) had the broadest spectrum and their lambda maxima shifted at the highest wavelength compared to the other compounds. The absorption spectrum of molecules with the same number and position of hydroxyl seemed only slightly influenced by the substituent in position 5 of the benzimidazole ring. After having established the lambda maxima for every compound, solutions at different concentrations were prepared to calculate the molar extinction coefficient by means of linear regression and applying Lambert–Beer equation (Table 2).

[5] = Cytotoxicity, MTT test, 72 h; settings: human, NCTC-2544 keratinocytes (immortalized, nontumorigenic)
Description: as §1
After medium removal, 100 μL of the drug solution, dissolved in DMSO and diluted in DMEM medium, was added to each well, incubated at 37 °C for 72 h. Final DMSO concentration never exceeded 0.5%. Cell viability was assayed by the MTT (3–(4,5-dimethylthiazol-2-yl)-2,5 diphenyl tetrazolium bromide) test as previously described by Mosmann[27].
The tests were conducted using a specific cell line of human keratinocytes (NCTC-2544). To assess cell viability, in the presence of the study compounds, before and after the irradiation, the MTT assay was performed[27]. The cytotoxicity was checked after 72 h from the incubation of the keratinocytes with compounds; moreover, the same experiments were performed in the presence of the parent PBSA.

[6] = read-out: % Cell survival UVA 20 J/cm^2
[7] = read-out: % Cell survival UVB 0.5 J/cm^2
[8] = read-out: % Cell survival UVB 1 J/cm^2

Compound | FRAP [1] [μmolTrolox/mmol] | % Cell survival UVA 20 J/cm^2 [2] [%] | % Cell survival UVB 0.5 J/cm^2 [2] [%] | % Cell survival UVB 1 J/cm^2 [2] [%] | PCL of finished formulation [3] | λ max [4] [nm] | ɛ (molar extinction coefficient) [4] | phototoxic effect (cell survival vs irradiated control) [2] | IC50 at 72 h [5] [µM] | viability at 20 µM [2, 6] [%] | viability at 20 µM [2, 7] [%] | viability at 20 µM [2, 8] [%] | viability at 50 µM [2, 6] [%] | viability at 50 µM [2, 7] [%] | viability at 50 µM [2, 8] [%] | cell survival in relation to the irradiated control [2]
2-(2,4-Dihydroxy-phenyl)-1H-benzimidazole [Compound 9] | 37.3 ± 0.35 | 3.7 ± 0.5 | 1.1 ± 0.3 | 0.5 ± 0.1 | 8.66 ± 0.04 μmol Trolox/g formulation | 315 | 14 000 | – | – | – | – | – | – | – | – | –
2-(2-Hydroxy-phenyl)-1H-benzimidazole [Compound 10] | 23.04 ± 0.09 | 4.8 ± 0.6 | 19.8 ± 2.4 | 3.5 ± 0.3 | 0.5 ± 0.02 μmol Trolox/g formulation | 315 | 17 000 | phototoxic effect | – | – | – | – | – | – | – | –
O=S(=O)(O)c1ccc2[nH]c(-c3ccc(O)cc3)nc2c1 [Compound 2, 2-(4-Hydroxy-phenyl)-1H-benzimidazole-5-sulfonic acid] | 12.23 ± 0.25 | – | – | – | 0.33 ± 0.03 μmol Trolox/g formulation | 308 | 25 000 | – | 26.4 ± 2.7 | 77.3 ± 2.8 | 78 ± 3.5 | 46.7 ± 3.4 | – | – | – | –
O=S(=O)(O)c1ccc2[nH]c(-c3ccc(O)c(O)c3)nc2c1 [Compound 3, 2-(3,4-Dihydroxy-phenyl)-1H-benzimidazole-5-sulfonic acid] | 2707.29 ± 29.52 | – | – | – | 2212.09 ± 68.35 μmol Trolox/g formulation | 313 | 23 000 | – | > 50 | – | – | – | 77.4 ± 4 | 71.5 ± 2.5 | 58.1 ± 2.6 | doubled
O=S(=O)(O)c1ccc2[nH]c(-c3ccccc3O)nc2c1 [Compound 4, 2-(2-Hydroxy-phenyl)-1H-benzimidazole-5-sulfonic acid] | 16.22 ± 0.89 | – | – | – | 0.06 ± 0.02 μmol Trolox/g formulation | 315 | 21 000 | – | > 50 | – | – | – | 76.9 ± 2 | 74.3 ± 3.2 | 37.7 ± 1.7 | –
O=S(=O)(O)c1ccc2[nH]c(-c3ccc(O)cc3O)nc2c1 [Compound 5, 2-(2,4-Dihydroxy-phenyl)-1H-benzimidazole-5-sulfonic acid] | 19.87 ± 0.22 | – | – | – | 0.95 ± 0.02 μmol Trolox/g formulation | 318 | 23 000 | – | > 50 | – | – | – | 79 ± 6 | 70.8 ± 3.9 | 38.6 ± 3.7 | –
O=S(=O)(O)c1ccc2[nH]c(-c3ccc(O)c(O)c3O)nc2c1 [Compound 6, 2-(2,3,4-Trihydroxy-phenyl)-1H-benzimidazole-5-sulfonic acid] | 2713.3 ± 45.17 | – | – | – | 101.98 ± 1.08 μmol Trolox/g formulation | 328 | 22200 L/mol/cm | phototoxic effect | 23.1 ± 2.9 | 18.4 ± 2.3 | 59.3 ± 3.4 | 29.7 ± 2.1 | – | – | – | –
Oc1ccc(-c2nc3ccccc3[nH]2)cc1O [Compound 8, 2-(3,4-Dihydroxy-phenyl)-1H-benzimidazole] | 2663.21 ± 32.53 | – | – | – | 2972.107 ± 145.63 μmol Trolox/g formulation | 311 | 16 000 | – | > 50 | – | – | – | 62.9 ± 4.3 | 72.8 ± 1 | 43.9 ± 3.4 | –
Oc1ccc(-c2nc3ccccc3[nH]2)c(O)c1O [Compound 11, 2-(2,3,4-Trihydroxy-phenyl)-1H-benzimidazole] | 2723.19 ± 35.74 | – | – | – | 153.35 ± 8.14 μmol Trolox/g formulation | 325 | 12 000 | phototoxic effect | > 50 | – | – | – | 1.2 ± 0.2 | 45.6 ± 2.6 | 27 ± 2.4 | –
O=S(=O)(O)c1ccc2[nH]c(-c3ccccc3)nc2c1 [PBSA, 2-phenyl-1H-benzimidazole-5-sulfonic acid, reference compound] | – | – | – | – | <LOQ^b | 302 | 25 000 | – | > 50 | – | – | – | 74.5 ± 1.4 | 75.2 ± 4.5 | 64.2 ± 3.1 | doubled
